Where two headings read alike, the source gives them in different places.
Experiments:
[1] = Phase solubility study of G-Re with CDs in water; type: physicochemical; details: for stability constant Ks: G-Re with the CD, 1:1 stoichiometry; for △G: Gibbs free energy change of complexation with G-Re, ΔG = −RTln Ks; for Ks: apparent stability constant of G-Re with the CD, Ks=slope/S0(1-slope); for Ks / 1/Slope / Slope: water, 25 °C; for 1/Slope: phase solubility of G-Re; for Slope: slope of phase solubility curve of G-Re vs CD concentration
Procedure: Phase solubility studies were performed in water in accordance with the method formerly stated by Higuchi and Connors. In brief, an excess amount of G-Re was supplemented into 10 mL Eppendorf tubes with aqueous solution, including various concentrations of α-CD, β-CD, and γ-CD, respectively. Suspensions were vigorously shaken in 25 °C water bath for a week. After equilibrium was reached, the solutions were centrifuged for 5 min at 4000 rpm (1500 g). Meanwhile, a 0.22 μm membrane was used to further filter the supernatant. The filtrate was diluted and HPLC was employed to determine G-Re content.
The phase solubility curves were obtained with the regression of the concentrations of cyclodextrin (mol L^−1) as X-axis and the concentration of G-Re (mol L^−1) as Y-axis. The value of apparent stability constant (Ks) was defined by using the straight-line portion in the phase-solubility to the equation as follows: Ks=slope/S0(1-slope)
In this formula, R can be seen as the general gas constant, which equaled 8.314 J/mol K, and T can be considered as the experimental operating temperature.
(§1) The contents of G-Re from the dissolution sample and phase solubility sample were determined with the help of HPLC on the C18 column (Ascentis® Express, 10 cm × 2.1 mm, 2.6 μm, Sigma, USA), which was installed an Agilent system. This system consisted of a micro degasser, an auto plate sampler, a system binary pump, as well as a thermostatically controlled column apartment at 30 °C. Samples were separated under elution conditions at A (acetonitrile) and B (water) = 19: 81 (v/v). Then, the flow rate was set at 0.5 mL per minute and the injection volume at 5 μL, while the G-Re was detected spectrophotometrically at 205 nm.

[2] = Pharmacokinetic / bioavailability study after single oral administration, plasma LC-MS/MS; type: in vivo, Sprague-Dawley rats; details: rats, 100 mg/kg, mean ± SD
Procedure: The animal studies carried out in this study strictly followed the instructions of the Animal Care and Use Committee of the Changchun university of Chinese medicine (Approval Number: 20190030). Adult male Sprague-Dawley rats (200-220 g; Yisi Experimental Animal Technology Co., Ltd., Changchun, China Approved number: SCXK (JI) 2018-0007) were used for the pharmacokinetic studies. All rats were not allowed to be fed for 24 h before the oral dosing and likewise after the drug administration. Besides, all of them needed to be brought up under a controlled temperature ranging from 20 to 24 °C with a 12-h light/dark cycle. G-Re powder and G-Re-γ-CD complex were suspended in double-distilled water prior to use at 100 mg/kg. […] The blood samples were centrifuged for 10 min at 4000 rpm to harvest the plasma sample (100 μL). Then, the G-Rf (10 μL, 10 ng/mL) was added into each tube rapidly to work as the inherent criterion. After that, a mixed 0.5 mL methanol-acetonitrile (60:40, v/v) should be added for precipitating proteins and extracting interested compounds. The samples were then rotated for 3 min and centrifuged at 15,000×grams for 10 min. By separating and evaporating, the supernatant was obtained on the condition that the nitrogen flow dried gently at 40 °C. Additionally, the residue was reconstituted by vortexing for 1 min with 0.2 mL methanol-water (80:20, v/v). Furthermore, the supernatant was transferred into auto-sampler vials using 5 μL aliquot to inject to the LC-MS/MS system. This method could be carried out by a combination of a Thermo TSQ Endura triple-quadrupole tandem mass spectrometer (Thermo Fisher Inc., Waltham, USA), which is a method named electrospray ionization (ESI), and an Ultimate 3000 LC system which is composed of a vacuum degasser, a quaternary pump, as well as an auto-sampler. Xcalibur 2.2 (SP1.48) software was used to acquire and analyze the data (Thermo Fisher Inc., Waltham, USA). After that, the separation of chemical materials was conducted by using the reverse-phase Accucore C18 analytical column (100 mm × 2.1 mm, 2.6 μm, Thermo Fisher Inc., Waltham, USA). This column was available for the linear gradient elution by using the mobile phase, which consisted of water embracing 0.1% formic acid (A) and acetonitrile (B). Steps are described as follows: 0 min (A 75%-B 25%)-5.0 min (A 70%-B 30%)-8 min (A 68%-B 32%)-9 min (A 64%-B 36%)-16 min (A 63%-B 37%)-16.8 min (A 52%-B 48%)-17.8 min (A 30%-B 70%)-18.8 min (A 10%-B 90%)-20.8 min (A 75%-B 25%)-25 min (A 75%-B 25%). The flow rate should be 0.2 mL per minute, and the volume of injection needed to be 5 μL. This process needed to be performed using the ESI negative ionization and multiple reactions monitoring (MRM) mode. Furthermore, the parameters of spray voltage were 3 kV, the parameters of capillary temperature was 325 °C, and the pressure of nitrogen sheath gas and auxiliary gas were 30 arb and 10 arb. The formic acid adduct [M+HCOO]- is the dominant parent ion of products. […] Finally, the ion transition situations for multiple reactions monitoring (MRM) were m/z 945.5→637.3 and 637.3→475.3 for G-Re, m/z 799.5→637.3 and 637.3→475.3 for IS. After oral administration, non-compartment approaches could be utilized [NT]-Re's t pharmacokinetic parameters. The part under the plasma concentration-time curve increasing from 0 to infinity (AUC0→∞) could be computed by the equation AUC0→∞ = AUCt + Ct/k. In this equation, Ct could be seen as the last concentration which could be quantized, and the calculation of k could be conducted by a straight-line's slope in plasma disappearance's terminal phase. […] Furthermore, with the help of linear trapezoidal approximation, it was easy to calculate the area below the plasma concentration-time curve increasing from 0 to the time of the last quantifiable concentration (AUCt). The calculation of bioavailability value for G-Re's oral doses needed to be conducted according to the AUC's dose-adjusted ratio. […]

[3] = Dissolution test in water (rotatory-basket method); type: physicochemical; details: at 30 min, 37 °C, 100 rpm, 20 mg as Re in 200 mL
Procedure: G-Re, G-Re-γ-CD physical mixtures, and the G-Re-γ-CD ICs (20 mg as Re) were inserted into a basket in a automatic dissolution testing system (RC806D, Tianjin Tianda Technology Co.,Ltd, Tianjin, China) containing 200 mL of water according to the dissolution method (Chp. 2020 Vol II Addium XC rotatory-basket method). The speed was set at 100 rpm, and the temperature was 37 ± 0.5 °C. Then an equal amount of solution (1 mL) needed to be taken at timepoints of 5, 15, 30, 45, and 60 min; at the same time, 1 mL solution should be replaced. As described below, the determination of G-Re concentration by 205 nm high-performance liquid chromatography was feasible. The G-Re concentration was detected with the same HPLC method applied in the phase solubility test.
as §1

[4] = design: method as in PMID 22314249, PMID 25197955, PMID 19729261; details: after oral administration; cited from earlier work
[5] = male, Sprague-Dawley, rat, plasma, n = 6

stability constant Ks [1]	△G [1]	Ks [1]	1/Slope [1]	Slope [1]	inclusion constant relative to that of α-CD ([1]; G-Re as guest)	SMILES	AUC(0-inf) [2, 5]	Cmax [2, 5]	MRT [2, 5]	half-life [2, 5]	tmax [2, 5]	AUC(0-t) ([2]; male, Sprague-Dawley, rat, plasma, n = 6, called AUC0–t, read-out: AUC0–24h)	CLt ([2]; n = 6)	Vdss ([2]; n = 6)	dissolution rate [3]	bioavailability [4]	tmax [4]
612 M⁻¹	-3.7976 kcal/mol	612 M⁻¹	5.16	0.1935	–	OC[C@H]1O[C@@H]2O[C@H]3[C@H](O)[C@@H](O)[C@@H](O[C@H]4[C@H](O)[C@@H](O)[C@@H](O[C@H]5[C@H](O)[C@@H](O)[C@@H](O[C@H]6[C@H](O)[C@@H](O)[C@@H](O[C@H]7[C@H](O)[C@@H](O)[C@@H](O[C@H]8[C@H](O)[C@@H](O)[C@@H](O[C@H]1[C@H](O)[C@H]2O)O[C@@H]8CO)O[C@@H]7CO)O[C@@H]6CO)O[C@@H]5CO)O[C@@H]4CO)O[C@@H]3CO [β-CD]	–	–	–	–	–	–	–	–	–	–	–
22 M⁻¹	-1.831 kcal/mol	22 M⁻¹	116.28	0.0086	–	OC[C@H]1O[C@@H]2O[C@H]3[C@H](O)[C@@H](O)[C@@H](O[C@H]4[C@H](O)[C@@H](O)[C@@H](O[C@H]5[C@H](O)[C@@H](O)[C@@H](O[C@H]6[C@H](O)[C@@H](O)[C@@H](O[C@H]7[C@H](O)[C@@H](O)[C@@H](O[C@H]1[C@H](O)[C@H]2O)O[C@@H]7CO)O[C@@H]6CO)O[C@@H]5CO)O[C@@H]4CO)O[C@@H]3CO [α-CD]	–	–	–	–	–	–	–	–	–	–	–
–	–	–	–	–	–	CC(C)=CCC[C@](C)(O[C@@H]1O[C@H](CO)[C@@H](O)[C@H](O)[C@H]1O)[C@H]1CC[C@]2(C)[C@@H]1[C@H](O)C[C@@H]1[C@@]3(C)CC[C@H](O)C(C)(C)[C@@H]3[C@@H](O[C@@H]3O[C@H](CO)[C@@H](O)[C@H](O)[C@H]3O[C@@H]3O[C@@H](C)[C@H](O)[C@@H](O)[C@H]3O)C[C@]12C [G-Re, Ginsenoside Re]	130 ± 54.1 ng·h/mL	32.2 ± 8.15 ng/mL	5.15 ± 0.968 h	12.2 ± 1.56 h	1.02 ± 0.036 h	113 ± 44.6 ng·h/mL	2.401 ± 0.52 L/h	13.691 ± 3.74 L/kg	6.73%	low	short
–	-5.673 kcal/mol	14410 M⁻¹	1.18	0.8494	655 times	OC[C@H]1O[C@@H]2O[C@H]3[C@H](O)[C@@H](O)[C@@H](O[C@H]4[C@H](O)[C@@H](O)[C@@H](O[C@H]5[C@H](O)[C@@H](O)[C@@H](O[C@H]6[C@H](O)[C@@H](O)[C@@H](O[C@H]7[C@H](O)[C@@H](O)[C@@H](O[C@H]8[C@H](O)[C@@H](O)[C@@H](O[C@H]9[C@H](O)[C@@H](O)[C@@H](O[C@H]1[C@H](O)[C@H]2O)O[C@@H]9CO)O[C@@H]8CO)O[C@@H]7CO)O[C@@H]6CO)O[C@@H]5CO)O[C@@H]4CO)O[C@@H]3CO [γ-CD]	–	–	–	–	–	–	–	–	–	–	–
